According to ChEMBL document CHEMBL1201862, “PubChem BioAssay data set” (2004):
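Tested at 5 concentrations; 48 h exposure; 96-well plates; endpoints linearly interpolated, else capped at highest concentration. GI50 marks 50% less growth.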 Calls of active or inactive are those of the source. Rule as the data show it: active = GI50 up to about 1.1 µM and inactive = higher.

Key:
Assay in all cases: DTP human tumour cell line panel, 48 h
M14 = system: M14
RXF 393 = system: RXF 393
NCI/ADR-RES = system: NCI/ADR-RES
UACC-257 = system: UACC-257
UACC-62 = system: UACC-62
A498 = system: A498
PC-3 = system: PC-3
COLO 205 = system: COLO 205
IGROV-1 = system: IGROV-1
SNB-75 = system: SNB-75
OVCAR-3 = system: OVCAR-3
MDA-MB-435 = system: MDA-MB-435
NCI-H226 = system: NCI-H226
CCRF-CEM = system: CCRF-CEM
KM12 = system: KM12
ACHN = system: ACHN
786-0 = system: 786-0
HCT-116 = system: HCT-116
TK-10 = system: TK-10
SF-268 = system: SF-268

C=CCOc1ccccc1/N=N/C(C#N)=N\Nc1ccccc1OCC=C
GI50 (M14): > 100 µM (inactive)
GI50 (RXF 393): > 100 µM (inactive)
GI50 (NCI/ADR-RES): > 100 µM (inactive)
GI50 (UACC-257): > 100 µM (inactive)
GI50 (UACC-62): > 100 µM (inactive)
GI50 (A498): > 100 µM (inactive)
GI50 (PC-3): > 100 µM (inactive)
GI50 (COLO 205): > 100 µM (inactive)
GI50 (IGROV-1): > 100 µM (inactive)
GI50 (SNB-75): > 100 µM (inactive)
GI50 (OVCAR-3): > 100 µM (inactive)
GI50 (MDA-MB-435): 41.9 µM (inactive)
GI50 (NCI-H226): > 100 µM (inactive)
GI50 (CCRF-CEM): > 100 µM (inactive)
GI50 (KM12): > 100 µM (inactive)
GI50 (ACHN): > 100 µM (inactive)
GI50 (786-0): > 100 µM (inactive)
GI50 (HCT-116): > 100 µM (inactive)
GI50 (TK-10): > 100 µM (inactive)
GI50 (SF-268): > 100 µM (inactive)

O=C1/C(=C/c2ccc(O)c([N+](=O)[O-])c2)CCC/C1=C\c1ccc(O)c([N+](=O)[O-])c1
GI50 (M14): 10.8 µM (inactive)
GI50 (RXF 393): 10 µM (inactive)
GI50 (NCI/ADR-RES): 19.2 µM (inactive)
GI50 (UACC-257): 10.5 µM (inactive)
GI50 (UACC-62): 7.23 µM (inactive)
GI50 (A498): 6.55 µM (inactive)
GI50 (PC-3): 13.3 µM (inactive)
GI50 (COLO 205): 13.5 µM (inactive)
GI50 (IGROV-1): 8.93 µM (inactive)
GI50 (SNB-75): 1.61 µM (inactive)
GI50 (OVCAR-3): 8.36 µM (inactive)
GI50 (MDA-MB-435): 9.53 µM (inactive)
GI50 (NCI-H226): 11.6 µM (inactive)
GI50 (CCRF-CEM): 30 µM (inactive)
GI50 (KM12): 9.4 µM (inactive)
GI50 (ACHN): 7.96 µM (inactive)
GI50 (786-0): 11.5 µM (inactive)
GI50 (HCT-116): 8.45 µM (inactive)
GI50 (TK-10): 23.2 µM (inactive)
GI50 (SF-268): 4.28 µM (inactive)

CCCCCCCCCC[C@H](O)[C@H]1CC[C@@H]([C@@H](O)CC[C@H](O)[C@@H]2CCC(CCCCCCC[C@@H](O)CC3=C[C@H](C)OC3=O)O2)O1 (stereo not given in full)
GI50 (M14): 1.5 µM (inactive)
GI50 (RXF 393): 2.66 µM (inactive)
GI50 (NCI/ADR-RES): 1.34 µM (inactive)
GI50 (UACC-257): 0.115 µM (active)
GI50 (UACC-62): 1.02 µM (active)
GI50 (A498): 3.16 µM (inactive)
GI50 (PC-3): 1.57 µM (inactive)
GI50 (COLO 205): 2.37 µM (inactive)
GI50 (IGROV-1): 1.78 µM (inactive)
GI50 (SNB-75): 2.47 µM (inactive)
GI50 (OVCAR-3): 1.35 µM (inactive)
GI50 (MDA-MB-435): 1.33 µM (inactive)
GI50 (NCI-H226): 1.57 µM (inactive)
GI50 (CCRF-CEM): 1.11 µM (active)
GI50 (KM12): 1.53 µM (inactive)
GI50 (ACHN): 1.21 µM (inactive)
GI50 (786-0): 1.79 µM (inactive)
GI50 (HCT-116): 1.16 µM (inactive)
GI50 (TK-10): 1.59 µM (inactive)
GI50 (SF-268): 1.85 µM (inactive)

Cc1ccc(NC(=O)CSc2nc(C)nc3c2sc(=S)n3-c2ccccc2)cc1
GI50 (M14): 2.79 µM (inactive)
GI50 (RXF 393): 1.79 µM (inactive)
GI50 (NCI/ADR-RES): 4.7 µM (inactive)
GI50 (UACC-257): > 10 µM (inactive)
GI50 (UACC-62): > 10 µM (inactive)
GI50 (A498): > 10 µM (inactive)
GI50 (PC-3): > 10 µM (inactive)
GI50 (COLO 205): 6.15 µM (inactive)
GI50 (IGROV-1): > 10 µM (inactive)
GI50 (SNB-75): 2.32 µM (inactive)
GI50 (OVCAR-3): 5.37 µM (inactive)
GI50 (MDA-MB-435): 4.06 µM (inactive)
GI50 (NCI-H226): 3.33 µM (inactive)
GI50 (CCRF-CEM): 9.23 µM (inactive)
GI50 (KM12): > 10 µM (inactive)
GI50 (ACHN): 8.77 µM (inactive)
GI50 (786-0): 2.37 µM (inactive)
GI50 (HCT-116): 4.24 µM (inactive)
GI50 (TK-10): > 10 µM (inactive)
GI50 (SF-268): 6.14 µM (inactive)

COc1cc(OC)c(OC)cc1/C=C/c1cnnc2ccccc12
GI50 (M14): > 10 µM (inactive)
GI50 (RXF 393): > 10 µM (inactive)
GI50 (NCI/ADR-RES): > 10 µM (inactive)
GI50 (UACC-257): > 10 µM (inactive)
GI50 (UACC-62): > 10 µM (inactive)
GI50 (A498): > 10 µM (inactive)
GI50 (PC-3): 4.33 µM (inactive)
GI50 (COLO 205): > 10 µM (inactive)
GI50 (IGROV-1): > 10 µM (inactive)
GI50 (SNB-75): 2.85 µM (inactive)
GI50 (OVCAR-3): > 10 µM (inactive)
GI50 (MDA-MB-435): 1.84 µM (inactive)
GI50 (NCI-H226): > 10 µM (inactive)
GI50 (CCRF-CEM): > 10 µM (inactive)
GI50 (KM12): > 10 µM (inactive)
GI50 (ACHN): > 10 µM (inactive)
GI50 (786-0): > 10 µM (inactive)
GI50 (HCT-116): > 10 µM (inactive)
GI50 (TK-10): > 10 µM (inactive)
GI50 (SF-268): > 10 µM (inactive)

Cc1ccc2c(c1)c1ccc3c(c1n2C)C(=O)C=CC3=O
GI50 (M14): 2.05 µM (inactive)
GI50 (RXF 393): 1.97 µM (inactive)
GI50 (NCI/ADR-RES): 2.96 µM (inactive)
GI50 (UACC-257): 2.51 µM (inactive)
GI50 (UACC-62): 3.01 µM (inactive)
GI50 (A498): 2.88 µM (inactive)
GI50 (PC-3): 3.66 µM (inactive)
GI50 (COLO 205): 1.26 µM (inactive)
GI50 (IGROV-1): 3.52 µM (inactive)
GI50 (SNB-75): > 10 µM (inactive)
GI50 (OVCAR-3): 1.95 µM (inactive)
GI50 (MDA-MB-435): 2.35 µM (inactive)
GI50 (NCI-H226): > 6.85 µM (inactive)
GI50 (CCRF-CEM): 0.284 µM (active)
GI50 (KM12): 6.84 µM (inactive)
GI50 (ACHN): 1.56 µM (inactive)
GI50 (786-0): 1.95 µM (inactive)
GI50 (HCT-116): 1.51 µM (inactive)
GI50 (TK-10): 2 µM (inactive)
GI50 (SF-268): 3.43 µM (inactive)

CCOC(=O)C(NC(=O)OCc1ccccc1)C(=O)O (stereo not given)
GI50 (M14): > 100 µM (inactive)
GI50 (RXF 393): > 100 µM (inactive)
GI50 (NCI/ADR-RES): > 100 µM (inactive)
GI50 (UACC-257): > 100 µM (inactive)
GI50 (UACC-62): > 100 µM (inactive)
GI50 (A498): > 100 µM (inactive)
GI50 (PC-3): > 100 µM (inactive)
GI50 (COLO 205): > 100 µM (inactive)
GI50 (IGROV-1): > 100 µM (inactive)
GI50 (SNB-75): > 100 µM (inactive)
GI50 (OVCAR-3): > 100 µM (inactive)
GI50 (MDA-MB-435): > 100 µM (inactive)
GI50 (NCI-H226): > 100 µM (inactive)
GI50 (CCRF-CEM): > 100 µM (inactive)
GI50 (KM12): > 100 µM (inactive)
GI50 (ACHN): > 100 µM (inactive)
GI50 (786-0): > 100 µM (inactive)
GI50 (HCT-116): > 100 µM (inactive)
GI50 (TK-10): > 100 µM (inactive)
GI50 (SF-268): > 100 µM (inactive)
